{
  "source": "paper PMC9042886",
  "about": "(RSC Advances, 2021)",
  "origin": "cited, not measured here",
  "key": {"HDAC6": {"system": "HDAC6", "conditions": "read-out: IC50 for HDAC6"}, "HDAC8": {"system": "HDAC8", "conditions": "read-out: IC50 for HDAC8"}},
  "data": [
    {"smiles": "Oc1ccc[nH]c1=S", "note": "[3-HPT, 3-hydroxypyridin-2-thione]", "values": [
      {"measurement": "IC50", "setting": "HDAC6", "result": "0.306 ± 0.069", "unit": "µM"},
      {"measurement": "IC50", "setting": "HDAC8", "result": "3.1 ± 1.65", "unit": "µM"}
    ]}
  ]
}
